Consider 1 compound from patent publication US20210308101A1, “METHODS OF TREATING FIBROMYALGIA” (Aptinyx Inc., priority 2019, published 2021).

Experiment [1] concerns subjects with fibromyalgia. Briefly: Revised Fibromyalgia Impact Questionnaire (FIQR). In kind it is in vivo, human. The source says: As used herein, “FIQR” is Revised Fibromyalgia Impact Questionnaire. The FIQR is an updated version of the Fibromyalgia Impact Questionnaire which is an assessment of the physical functioning, work status, depression, anxiety, morning tiredness, pain, stiffness, fatigue and wellbeing in fibromyalgia subjects measured over the period of 1 week. The FIQR differs from the FIQ in that it includes questions on memory, tenderness, balance, and environmental sensitivity as well as modified function questions. All 21 FIQR questions are based on an 11-point numerical rating scale/Likert scale ranging from 0 to 10. Lower scores represent a better quality of life. The FIQR is made of the 3 following domains: • Function Domain Score • 9 Questions with Scores Ranging from 0 (No Difficulty) to 10 (Very Difficult) • Sum of those 9 Questions make up the Function Domain Score Ranging from 0 to 90 • Missing Data Imputation Factor: If at least 5 questions were answered, the Function Domain Score was multiplied by 9/(number of questions answered) and rounded off to the nearest whole number. Otherwise, the score was set to missing. • Overall Impact Domain Score • 2 Questions with Scores Ranging from 0 (Never) to 10 (Always) • Sum of those 2 Questions make up the Overall Impact Domain Score Ranging from 0 to 20 • Missing Data Imputation Factor: If 1 question was missing, the Overall Impact Domain Score was multiplied by 2. Otherwise, the score was set to missing. • Symptoms Domain Score • 10 Questions with Scores Ranging from 0 to 10 with Different Categorical Reponses Sum of those 10 Questions make up the Symptoms Domain Score Ranging from 0 to 100 Missing Data Imputation Factor: If at least 5 questions were answered, the Function Domain Score was multiplied by 10/(number of questions answered) and rounded off to the nearest whole number. Otherwise, the score was set to missing.
If all 3 domain scores could be calculated, the Total FIQR Score ranged from 0 to 100 and was calculated based on the normalization domain scores: (Function Domain Score/3)+Overall Impact Domain Score+(Symptoms Domain Score/2). Otherwise, the Total FIQR Score was set to missing. The Function and Symptoms domain scores collected on the CRF applied the normalization factors stated above (Function Domain Score/3 and Symptoms Domain Score/2) in order to calculate the Total FIQR Score on the CRF. As a result, the Function and Symptoms domain scores were derived by the definition stated above in the SAP as opposed to using the collected values on the CRF. The FIQR assessment was collected and analyzed at visits Screening, Day 1, Week 2, Week 4, Week 6, and Follow-up (Week 7). The observed total and domain scores, changes from baseline, and changes from treatment periods were summarized using descriptive statistics. Additionally, the treatment group comparisons were analyzed using the paired ttest and nonparametric Wilcoxon signed-rank test. All FIQR data collected and the calculated total and domain scores at each visit were presented in a subject listing.

Experiment [2] has as its system resting state network connectivity. Briefly: rs-fcMRI group independent component analysis (DMN, SLN, DAN). Type of experiment: in vivo, human. How it is done:
In order to quantify intrinsic brain connectivity, rs-fcMRI data were analyzed with both dual-regression ICA and seed-voxel approaches. These approaches are complementary, as they quantify intrinsic brain connectivity on a network level (dual regression probabilistic ICA) and a more specific region-focused level (seed-voxel).
Resting state functional connectivity MRI data were preprocessed and analyzed using statistical parametric mapping software package Version 12, the CONN functional connectivity toolbox, and the GIFT toolbar, all running on MATLAB Version 9.2 or later. Upon collection of rs-fcMRI data, physiological artifacts were first removed using a custom MATLAB algorithm and slice-time corrected using Functional Magnetic Resonance Imaging of the Brain Software Library software. Preprocessing steps included motion correction, realignment, registration, normalization to standard Montreal Neurological Institute template, and smoothing (full width at half maximum Gaussian kernel of 6 or 8 mm).
Group ICA was performed using the GIFT toolbar and component estimates were validated using Icasso software for 10 iterations. The number of independent components was limited to 25 to minimize splitting into subcomponents. Subject-specific spatial maps and time courses were back reconstructed using spatiotemporal regression and dual regression in GIFT. As for seed-based analyses, individual maps were passed onto group second level analyses in statistical parametric mapping, where differences in resting state network connectivity between placebo and drug images were performed.
Several analyses were conducted with the fMRI resting state and task data. Results were assessed by: 1) a primary analysis, where a finding was deemed significant with a corrected cluster level p<0.05, derived from an uncorrected voxel-wise p<0.001, and 2) an exploratory analysis, where a finding was deemed significant with an uncorrected voxel-wise p<0.005 and having a cluster greater than or equal to 80 contiguous voxels. Results that met significance in the primary analyses had connectivity values extracted and imported into SPSS v25 where paired t-tests were performed to assess for potential outliers contributing to the finding. Remaining data were then correlated with clinical measures using parametric bivariate Pearson correlations. Results were deemed significant at p<0.05.
Group ICA was performed (n=18) for the resting state scan, and the network components for the Default Mode Network, the Salience Network, and the Dorsal Attention Network were computed. […] With the exploratory analyses, resting state connectivity was decreased from the placebo visit to the NYX-2925 200 mg visit (placebo >NYX-2925 200 mg) between the Default Mode Network and the left mid cingulate cortex. […] In exploratory analyses, resting state functional connectivity was decreased from the placebo visit to the NYX-2925 200 mg visit (placebo >NYX-2925 200 mg) between the Salience Network and the right putamen/thalamus. Here, augmented connectivity between Salience Network, a network comprised of pronociceptive regions, and putamen and thalamus, regions also involved in nociception, was decreased following treatment with NYX-2925.

The mark [3] stands for this setting: Week 2 (placebo) to Week 4 (NYX-2925 20 mg).
[4] abbreviates: Week 2 (placebo) to Week 6 (NYX-2925 200 mg).
Setting [5] is: exploratory, placebo visit to NYX-2925 200 mg visit.

For the compound `CC(C)C(=O)N1CCC[C@]12CN([C@H](C(N)=O)[C@@H](C)O)C2=O` [NYX-2925, (2S, 3R)-3-hydroxy-2-((R)-5-isobutyryl-1-oxo-2,5-diazaspiro[3.4]octan-2-yl)butanamide], the “total FIQR score, change from baseline” value in experiment [1] (NYX-2925 20 mg) is given as “reductions from baseline”. Further, in experiment [1] (setting [3]), the “FIQR Symptoms Domain score, mean change” value is listed as −2.1 and the “FIQR Total score, mean change” value is recorded as −0.5. Besides, in experiment [1] (setting [4]), the “FIQR Function Domain score, mean change” value is given as −3.7 and the “FIQR Overall Impact Domain score, mean change” value is given as −2.0. For the same compound, in experiment [1] (Week 2 (placebo) to Week 6 (NYX-2925 200 mg), p=0.0135), the “FIQR Total score, mean change” value was −6.3. In addition, the “FIQR Symptoms Domain score, mean change” value in experiment [1] (Week 2 (placebo) to Week 6 (NYX-2925 200 mg), p=0.0207) is given as −6.2. Moreover, the “Total FIQR score, reduction from baseline” value in experiment [1] (week six, after four weeks of NYX-2925, scale 0 to 100, n=21) amounted to 9.6 point. Further, in experiment [2] (setting [5]), the “connectivity Default Mode Network - left mid cingulate cortex” value is “decreased” and the “connectivity Salience Network - right putamen/thalamus” value is “decreased”. Also, the “Salience Network connectivity” value in experiment [2] (primary analysis) is on record as “No results met significance”. The “Default Mode Network connectivity” value in experiment [2] (primary analysis, n=18) is “No results met significance”. Moreover, in experiment [2] (primary and exploratory analyses), the “Dorsal Attention Network connectivity” value is on record as “no significant results”.
